Assay results from patent US20090047701A1, “METHOD FOR SCREENING ANTIFUNGAL AGENTS” (STICHTING VOOR DE TECHNISCHE, priority 2004, published 2009).

Columns and labels:
Type in all cases: cell-based, Aspergillus niger
agsA [1] = assay: Northern analysis of agsA expression after CFW-induced cell wall stress, rlmA deletion strain (ΔrlmA); settings: ΔrlmA germlings, 200 μg/ml CFW, RNA at 0, 15, 30, 45 and 60 minutes (FIG. 3)
Procedure: (§1) Cell wall integrity response in the wild-type (N402) and the ΔrlmA strain. Northern analysis of the agsA, and 18S messenger levels. Strains were grown in shake flask until small germ tubes were formed. Subsequently CFW (+) or an equal volume of water (−) was added to the cultures. RNA was extracted at the timepoints indicated above the Northerns, t=time in minutes. The probes used; for agsA a ˜0.6 kb EcoRI agsA fragment was isolated from pGEMT-agsA (Damveld et al, unpublished vector); the 18S ribosomal probe was isolated as a 2 kb BglI fragment from pMN1 (Borsuk et al., 1982 Gene 17, 147-152.)
(§2) Chromosomal DNA of A. niger was isolated as described by Kolar (Kolar et al., 1988, Gene 62, 127-134). Alternatively, chromosomal DNA was isolated using the FastPrep FP120 (Bio101). First, A. niger spores were grown in Fast-prep tubes containing 1 ml CM and 0.3 gram acid washed glass beads. […] Sequencing was carried out with a Perkin Elmer ABI PRISM 310 sequencer using the ABI prism Big Dye Terminator Cycle Sequencing Ready Reaction Kit (Applied Biosystems). […]
(§3) To determine the role of A. niger RlmA in the activation of agsA in response to cell wall stress, the expression of agsA was analysed in both the wild-type strain (N402) and the rlmA deletion strain (ΔrlmA) after CFW treatment. […]

ΔrlmA strain = assay: microtiter plate based growth assay: sensitivity of the ΔrlmA strain versus wild-type (N402); settings: spores in Complete medium, 37° C., 96-well plates, various concentrations, ΔrlmA vs N402 (FIG. 4)
Procedure: Sensitivity of the ΔrlmA strain towards different compounds. Growth curves of wild-type (N402) and ΔrlmA strains. Spores were grown in Complete medium for 24 hrs at 37° C. in the presence of various concentrations of antifungals. Data are represented as the mean and standard error of the mean obtained from four replicates. The dotted line with open squares represents the growth curve of the rlmA deletion strain and the solid line with closed circles represent the parental (N402) strain.
Sensitivity towards various compounds was assayed in 96-well microtiter plates (Nunc, art. 164588) using a Perkin Elmer HTS-7000 Bioassay reader. A series of concentrations of stress-inducing compounds (CFW, Caspofungin, Hydrogen-peroxide, SDS) were prepared in 100 μl milliq in a 96-well plate, and 100 μl spore solution (˜2×10^4 spores) in 2× complete medium was added to 100 μl stress-inducing solution. The microtiter plates were incubated at 37° C. and the OD590 was measured every 2 hours.
The sensitivity of the wild-type and the ΔrlmA strain towards various compounds was also measured by determining fungal growth in a microtiter plate based growth assay.

agsA [2] = assay: Northern analysis of agsA expression after CFW-induced cell wall stress, wild-type strain (N402); settings: wild-type N402 germlings, 200 μg/ml CFW, RNA at 0, 15, 30, 45 and 60 minutes (FIG. 3)
Procedure: as §1, §2, §3

Row | Molecule | agsA mRNA in the ΔrlmA strain after treatment with CFW (agsA [1]) | Sensitivity of the ΔrlmA strain towards the compound in comparison to the wild-type strain (fungal growth, OD590) (ΔrlmA strain) | expression level of the agsA gene after CFW addition (agsA [2])
1 | O=S(=O)(O)c1cc(Nc2nc(Nc3ccccc3)nc(N(CCO)CCO)n2)ccc1/C=C/c1ccc(Nc2nc(Nc3ccccc3)nc(N(CCO)CCO)n2)cc1S(=O)(=O)O [CFW, Calcofluor White] | no agsA mRNA could be detected | hypersensitive phenotype | already induced 15 minutes after CFW addition
2 | CC[C@H](C)C[C@H](C)CCCCCCCCC(=O)N[C@H]1C[C@@H](O)[C@@H](NCCN)NC(=O)[C@@H]2[C@@H](O)CCN2C(=O)[C@H]([C@H](O)CCN)NC(=O)[C@H]([C@H](O)[C@@H](O)c2ccc(O)cc2)NC(=O)[C@@H]2C[C@@H](O)CN2C(=O)[C@H]([C@@H](C)O)NC1=O [Caspofungin] | – | slightly, but reproducible enhanced | –
3 | OO [H2O2, Hydrogen-peroxide] | – | no hypersensitive phenotype | –
4 | CCCCCCCCCCCCOS(=O)(=O)[O-].[Na+] [SDS] | – | hypersensitive phenotype | –
5 | CCCCNC(=O)n1c(NC(=O)OC)nc2ccccc21 [benomyl] | – | slightly, but reproducible enhanced | –
6 | tunicamycin | – | slightly, but reproducible enhanced | –
